# Results as given in patent US11452728B2, “7-aminocephalosporanic acid derivative as inhibitor of IL15 and IL-2 activity” (Warszawski Uniwersytet Medyczny, priority 2013, dated 2022).
# What was measured:
# IL-15-stimulated PBMC = assay: IL-15-induced PBMC proliferation (BrdU Cell Proliferation Assay); assay type: cell-based, human; settings: IL-15 5 ng/ml; Cefazolin 20, 100, 300 μM; 4 days; repeated three times, different donors
# Protocol: (§4) All experiments were carried out on peripheral blood mononuclear cells (PBMC) from healthy donors. The cells were isolated under the standard protocol regarding density gradient centrifugation. According to the general protocol, 6 ml of blood was layered on 3 ml of Lymphoprep (Axis-shield, Norway), then centrifuged at 800×g for 15 min. The layer of PBMC was collected, the cells were washed twice with phosphate buffered saline (PBS) (BIOMED-LUBLIN, Poland) and suspended in medium RPMI1640 (Gibco, Great Britain), containing 10 mM HEPES (Sigma, USA), 10% fetal calf serum (BIOMED-LUBLIN, Poland) and antibiotic (streptomycin sulfate, penicillin G sodium; amphotericin B, PAA, Austria). In all the in vitro experiments non-stimulated PBMC were used as the control. The inhibition efficacy was assessed in relation to the cells stimulated with IL-15 or IL-2. PBMC proliferation was evaluated using commercially available BrdU Cell Proliferation Assay (Calbiochem, Merck, Germany). PBMC were seeded in a 96-well plate (25×10^3 cells in 200 μL of the culture medium/well). The next day the cells were treated with the tested compound at final concentrations: 20 μM, 100 μM and 300 μM. […] The results are expressed as the percentage change of proliferating cells with regard to the control cells stimulated with IL-15 or IL-2. […]
# IL-2-stimulated PBMC = assay: IL-2-induced PBMC proliferation (BrdU Cell Proliferation Assay); assay type: cell-based, human; settings: IL-2 5 ng/ml; Cefazolin 20, 100, 300 μM; 4 days; repeated three times, different donors
# Protocol: as §4
# [1] = test system: IL-15-induced TNF-α synthesis in PBMC; assay: IL-15-induced TNF-α synthesis in PBMC (ELISA); assay type: cell-based, human; settings: IL-15 5 ng/ml; 48 h; Cefazolin 20-1000 μM; vs IL-15 stimulated control cells
# Protocol: (§1) All experiments were carried out on peripheral blood mononuclear cells (PBMC) from healthy donors. The cells were isolated under the standard protocol regarding density gradient centrifugation. According to the general protocol, 6 ml of blood was layered on 3 ml of Lymphoprep (Axis-shield, Norway), then centrifuged at 800×g for 15 min. The layer of PBMC was collected, the cells were washed twice with phosphate buffered saline (PBS) (BIOMED-LUBLIN, Poland) and suspended in medium RPMI1640 (Gibco, Great Britain), containing 10 mM HEPES (Sigma, USA), 10% fetal calf serum (BIOMED-LUBLIN, Poland) and antibiotic (streptomycin sulfate, penicillin G sodium; amphotericin B, PAA, Austria).
# (§2) In all the in vitro experiments non-stimulated PBMC were used as the control. The inhibition efficacy was assessed in relation to the cells stimulated with IL-15 or IL-2. […]
# (§3) The PBMC were seeded in a 24-well plate (2×10^6 cells in 1 ml of the culture medium/well), treated with the tested compound and after 30 min stimulated with IL-15 (5 ng/ml) or IL-2 (5 ng/ml). After 48 h incubation, the culture medium was collected from each well to determine the TNF-α concentration, cells were harvested and lysed, and the concentration of total protein was measured in cell lysates. The obtained values of TNF-α concentration were calculated for 1 mg of protein. […]
# [2] = test system: IL-2-induced TNF-α synthesis in PBMC; assay: IL-2-induced TNF-α synthesis in PBMC (ELISA); assay type: cell-based, human; settings: IL-2 5 ng/ml; 48 h; Cefazolin 300 μM; vs IL-2 stimulated control cells
# Protocol: as §1, §2, §3
# [3] = test system: IL-15-induced IL-17 synthesis in PBMC; assay: IL-15-induced IL-17 synthesis in PBMC (ELISA); assay type: cell-based, human
# Protocol: as §1, §2
# as §3, with “PBMC” for “The PBMC”, “the inhibitor,” for “the tested compound and”, “30 min.” for “30 min”, “48 hr” for “48 h”, “the IL-17” for “the TNF-α”, “of IL-17” for “of TNF-α”
# [4] = test system: IL-2-induced IL-17 synthesis in PBMC; assay: IL-2-induced IL-17 synthesis in PBMC (ELISA); assay type: cell-based, human; settings: IL-2 5 ng/ml; 48 h; Cefazolin 300 μM
# Protocol: as §1, §2
# as §3, with “PBMC” for “The PBMC”, “the inhibitor,” for “the tested compound and”, “30 min.” for “30 min”, “48 hr” for “48 h”, “the IL-17” for “the TNF-α”, “of IL-17” for “of TNF-α”
# Gram-positive bacteria = settings: cited from earlier work
# [5] = cited from earlier work
compound,measurement,setting,value
Cc1nnc(SCC2=C(C(=O)O)N3C(=O)[C@@H](NC(=O)Cn4cnnn4)[C@H]3SC2)s1 [Cefazolin],effect on IL-15-induced PBMC proliferation,IL-15-stimulated PBMC,inhibits
same,effect on IL-2-induced PBMC proliferation,IL-2-stimulated PBMC,inhibits
same,effect on IL-15-induced TNF-α synthesis in PBMC,[1],significantly reduces
same,effect on IL-2-induced TNF-α synthesis in PBMC,[2],significantly reduces
same,effect on IL-15-induced IL-17 synthesis in PBMC,"[3]; IL-15 5 ng/ml, 48 h, Cefazolin 20-1000 μM, vs IL-15 stimulated control cells",significantly reduces
same,effect of increasing Cefazolin concentration on IL-15-induced IL-17 synthesis,[3]; increase of concentration from 200 μM to 1000 μM,does not affect IL-17 synthesis to any great extent
same,effect on IL-2-induced IL-17 synthesis in PBMC,[4],Strong inhibitory effect
same,cytotoxic or apoptotic activity on PBMC,PBMC,does not trigger the apoptotic pathway
same,bactericidal activity against Gram-positive bacteria,Gram-positive bacteria,Potent bactericidal activity
same,crossing of the blood brain barrier,[5]; in vivo,does not cross the blood brain barrier
same,"excreted in urine of unchanged structure, share of the excreted amount","[5]; urine, glomerular filtration",90%
